Data reported in patent publication EP1205482A2, “Alkyl trimethylsiloxybenzoat compounds and method of preparation” (Clariant Life Science Molecules (Florida) Inc., priority 2000, dated 2002).

Test: Hydrolytic stability in aqueous medium
Format: physicochemical
Settings: 50/50 w/w medium of 1,2-dimethoxyethane (DME) and sterilized water
Description: Aqueous solutions of the products from examples 3 and 5 above were prepared as follows. A 0.715% solution of propyl 4-trimethylsiloxybenzoate was prepared in a 50/50 w/w medium of 1,2-dimethoxyethane (DME)and sterilized water. […] Accordingly this DME/water solution (I) will contain 0.500% propyl 4-hydroxybenzoate and 0.180% trimethylsilanol and/or it's condensate hexamethyldisiloxane. In a similar manner a 0.685 % solution of butyl 4-trimethylsiloxybenzoate was prepared in a 50/50 w/w medium of 1,2-dimethoxyethane (DME)and sterilized water. […] Accordingly this DME/water solution (II) will contain 0.500% butyl 4-hydroxybenzoate and 0.170% trimethylsilanol and/or it's condensate hexamethyldisiloxane. The above two aqueous solutions were employed in Zone Inhibition Testing against three bacteria: Pseudomonas aeruginosa, Escherichia coli and Staphylococcus aureus.

## CCCOC(=O)c1ccc(O[Si](C)(C)C)cc1 [Example 3, propyl 4-trimethylsiloxybenzoate]
  hydrolytic stability: hydrolytically unstable

## CCCCOC(=O)c1ccc(O[Si](C)(C)C)cc1 [Example 4, butyl 4-trimethylsiloxybenzoate]
  hydrolytic stability: hydrolytically unstable
